Measurements: the supplement of paper PMC13380429
± gives the standard deviation of the averaged measurements.

Experiments:
Conditions in all cases: 72 h
Calu-3 [1] = assay: cell viability relative to DMSO; higher = less toxic
Vero E6 [2] = assay: as above
Caco-2 [3] = assay: as above
U2OS [4] = assay: as above
HepG2 [5] = assay: as above
Calu-3 [6] = assay: relative viability EC50 (midpoint between 100% and the lowest measured viability); higher = less toxic
Vero E6 [7] = assay: as above
Caco-2 [8] = assay: as above
U2OS [9] = assay: as above
HepG2 [10] = assay: as above
Calu-3 [11] = assay: drug sensitivity score (DSS) for viability; higher = more toxic; extreme values may be limits of the assay
Vero E6 [12] = assay: as above
Caco-2 [13] = assay: as above
U2OS [14] = assay: as above
HepG2 [15] = assay: as above

| SMILES | cell viability (Calu-3 [1]; 1 nM) | cell viability (Calu-3 [1]; 10 nM) | cell viability (Calu-3 [1]; 100 nM) | cell viability (Calu-3 [1]; 1000 nM) | cell viability (Calu-3 [1]; 10000 nM) | cell viability (Vero E6 [2]; 1 nM) | cell viability (Vero E6 [2]; 10 nM) | cell viability (Vero E6 [2]; 100 nM) | cell viability (Vero E6 [2]; 1000 nM) | cell viability (Vero E6 [2]; 10000 nM) | cell viability (Caco-2 [3]; 1 nM) | cell viability (Caco-2 [3]; 10 nM) | cell viability (Caco-2 [3]; 100 nM) | cell viability (Caco-2 [3]; 1000 nM) | cell viability (Caco-2 [3]; 10000 nM) | cell viability (U2OS [4]; 1 nM) | cell viability (U2OS [4]; 10 nM) | cell viability (U2OS [4]; 100 nM) | cell viability (U2OS [4]; 1000 nM) | cell viability (U2OS [4]; 10000 nM) | cell viability (HepG2 [5]; 1 nM) | cell viability (HepG2 [5]; 10 nM) | cell viability (HepG2 [5]; 100 nM) | cell viability (HepG2 [5]; 1000 nM) | cell viability (HepG2 [5]; 10000 nM) | relative viability EC50 (Calu-3 [6]) | relative viability EC50 (Vero E6 [7]) | relative viability EC50 (Caco-2 [8]) | relative viability EC50 (U2OS [9]) | relative viability EC50 (HepG2 [10]) | drug sensitivity score (Calu-3 [11]) | drug sensitivity score (Vero E6 [12]) | drug sensitivity score (Caco-2 [13]) | drug sensitivity score (U2OS [14]) | drug sensitivity score (HepG2 [15]) |
| --- | --- | --- | --- | --- | --- | --- | --- | --- | --- | --- | --- | --- | --- | --- | --- | --- | --- | --- | --- | --- | --- | --- | --- | --- | --- | --- | --- | --- | --- | --- | --- | --- | --- | --- | --- |
| COC(=O)c1ccc(N2CCN(C)CC2)c(NC(=O)c2cccc(OC)c2)c1 [WDR5-0103] | 98.9% | 93.4% | 99.5% | 97.4% | 97.8% | 94.6% | 98.2% | 94.2% | 102% | 103% | 88.8% | 97.5% | 91.7% | 99.9% | 89.8% | 98.5% | 94.8% | 96.8% | 95.5% | 101% | 102% | 114% | 85.5% | 112% | 102% | > 10 µM | > 10 µM | > 10 µM | > 10 µM | > 10 µM | 0 | 0 | 0 | 0 | 0 |
| C=CC(=O)Nc1cccc(Oc2nc(Nc3ccc(N4CCN(C)CC4)cc3)ncc2Cl)c1 [WZ-3146] | 95.9% | 89.9% | 86.4% | 36.9% | 2.3% | 104% | 99.3% | 106% | 59.9% | 7.8% | 90.7% | 100% | 99.3% | 78.3% | 11.6% | 97.6% | 100% | 95.5% | 72.1% | 0.2% | 108% | 100% | 109% | 75% | 38.7% | 0.539 µM | 1.11 µM | 1.56 µM | 1.46 µM | 1.16 µM | 13.9 | 10.3 | 8.3 | 9.7 | 6.7 |
| CC(C)c1cc(CNc2nc(Nc3cc(C4CC4)[nH]n3)cc(N3CCN(C)CC3)n2)on1 [XL228] | 95.7% | 99.3% | 87.3% | 61.5% | 33.9% | 94% | 97.8% | 101% | 75.3% | 23% | 111% | 94.4% | 93% | 72.5% | 33.1% | 104% | 103% | 84.8% | 30% | 0% | 95.3% | 98.3% | 62.4% | 40.6% | 7.4% | 0.593 µM | 1.35 µM | 1.22 µM | 0.47 µM | 0.266 µM | 8.8 | 7.8 | 6.7 | 15.1 | 16.2 |
| CC(=O)c1ccc(S(=O)(=O)NC(=O)NC2CCCCC2)cc1 [acetohexamide] | 91.8% | 112% | 90.2% | 107% | 104% | 92.7% | 98.2% | 97.1% | 98.9% | 110% | 97.1% | 85.8% | 90.7% | 75.4% | 83.1% | 95.1% | 98% | 96.6% | 96.3% | 96.9% | 99.5% | 103% | 106% | 113% | 106% | > 10 µM | > 10 µM | > 10 µM | > 10 µM | > 10 µM | 0 | 0 | 3.7 | 0 | 0 |
| O=C(O)C(=O)Nc1cccc(-c2nnn[nH]2)c1 [acitazanolast] | 100% | 107% | 91.3% | 105% | 99% | 98.7% | 99.5% | 99.4% | 100% | 97.4% | 100% | 86.7% | 88.4% | 95.9% | 97.1% | 99.8% | 98.4% | 99.3% | 101% | 96% | 94.8% | 99% | 101% | 96.3% | 110% | > 10 µM | > 10 µM | > 10 µM | > 10 µM | > 10 µM | 0 | 0 | 0 | 0 | 0 |
| O=C(NCCN1CCN(c2ncccn2)CC1)C12CC3CC(CC(C3)C1)C2 [adatanserin] | 101% | 96.5% | 107% | 86.8% | 101% | 99.5% | 97.9% | 101% | 99.4% | 104% | 92% | 114% | 94.7% | 102% | 88.5% | 94.9% | 94.2% | 97.8% | 96.9% | 97.4% | 102% | 98% | 88.5% | 90.7% | 90.9% | > 10 µM | > 10 µM | > 10 µM | > 10 µM | > 10 µM | 0 | 0 | 0 | 0 | 0.9 |
| Nc1ncnc2c1ncn2[C@@H]1O[C@H](CO)[C@@H](O)[C@H]1O [adenosine] | 107% | 88.4% | 96.3% | 96.1% | 95.2% | 102.5 ± 0.99% | 102 ± 2.3% | 97.3 ± 3.5% | 103.5 ± 0.35% | 99.95 ± 0.35% | 103 ± 2.4% | 100 ± 4.7% | 97.9 ± 1.8% | 94.5 ± 1.1% | 95.2 ± 8.6% | 102 ± 1.8% | 98 ± 3% | 98.2 ± 3.2% | 98.5 ± 2.2% | 104 ± 5.9% | 98.05 ± 0.21% | 102 ± 6.9% | 96.7 ± 6.6% | 110 ± 9.2% | 88 ± 9.1% | > 10 µM | > 10 µM | > 10 µM | > 10 µM | > 10 µM | 0 | 0 | 0 | 0 | 0.1 ± 0.14 |
| O=C(NCc1ccc2c(c1)OCO2)c1c(Cl)cccc1Cl [alda-1] | 91.7% | 100% | 109% | 102% | 108% | 94.2% | 105% | 98.8% | 91.2% | 98.3% | 93% | 91.3% | 100% | 93.1% | 99.1% | 103% | 99.8% | 99% | 100% | 100% | 92% | 105% | 99.8% | 101% | 95.9% | > 10 µM | > 10 µM | > 10 µM | > 10 µM | > 10 µM | 0 | 0 | 0 | 0 | 0 |
| C=C1/C(=C\C=C2/CCC[C@]3(C)[C@@H]([C@H](C)CCCC(C)C)CC[C@@H]23)C[C@@H](O)C[C@@H]1O [alfacalcidol] | 90.9% | 94.3% | 99.6% | 87.5% | 101% | 90.2% | 98.3% | 92.2% | 97.1% | 101% | 98.2% | 98.1% | 92.5% | 85% | 85.9% | 94.1% | 93.7% | 99% | 89.1% | 91.5% | 91.4% | 105% | 98.4% | 108% | 102% | > 10 µM | > 10 µM | > 10 µM | > 10 µM | > 10 µM | 0 | 0 | 1.5 | 0 | 0 |
| C=CCc1cc(OC)c(O)c(C(=O)NCCO)c1 [alibendol] | 93.6% | 99.3% | 87.2% | 99.7% | 101% | 105% | 99.2% | 99.6% | 105% | 97.4% | 90.7% | 112% | 90.5% | 93% | 99.9% | 102% | 105% | 95% | 104% | 99.6% | 92.4% | 98.7% | 101% | 92.5% | 102% | > 10 µM | > 10 µM | > 10 µM | > 10 µM | > 10 µM | 0 | 0 | 0 | 0 | 0 |
| CC(C)c1ccc2oc3nc(N)c(C(=O)O)cc3c(=O)c2c1 [amlexanox] | 92.3% | 87.4% | 104% | 101% | 99.5% | 96.6% | 99.8% | 98.4% | 102% | 106% | 94% | 95.9% | 99.8% | 89.8% | 108% | 97.1% | 94.3% | 100% | 96.4% | 99.8% | 96.7% | 101% | 99.9% | 109% | 113% | > 10 µM | > 10 µM | > 10 µM | > 10 µM | > 10 µM | 0 | 0 | 0 | 0 | 0 |
| Clc1cccc(SC2CCNCC2)n1 [anpirtoline] | 94.9% | 98.6% | 93.5% | 98.3% | 114% | 102% | 104% | 99.1% | 98.4% | 96.5% | 93.1% | 93.5% | 101% | 100% | 96.8% | 99.3% | 96.5% | 100% | 96.1% | 100% | 109% | 102% | 107% | 104% | 97.9% | > 10 µM | > 10 µM | > 10 µM | > 10 µM | > 10 µM | 0 | 0 | 0 | 0 | 0 |
| COc1cc2cc(c1Cl)N(C)C(=O)C[C@H](OC(=O)C(C)C)[C@]1(C)O[C@@H]1[C@H](C)[C@@H]1C[C@@](O)(NC(=O)O1)[C@H](OC)/C=C/C=C(\C)C2 [ansamitocin-p-3] | 62.6% | 53.6% | 36.7% | 37.4% | 37.8% | 72.1% | 32.5% | 29.8% | 21.2% | 18.4% | 45% | 47.9% | 39% | 40.9% | 35.1% | 39.6% | 29.1% | 19.9% | 17.9% | 16.3% | 39% | 32.4% | 38% | 33.8% | 30.9% | < 0.001 µM | 0.0021 µM | < 0.001 µM | < 0.001 µM | < 0.001 µM | 27.7 | 35 | 28.4 | 37.6 | 33.8 |
